Our source for the IC50, CC50 and EC50 values is PMC7868322, “Rational Design of A Novel Small-Molecule HIV-1 Inactivator Targeting Both gp120 and gp41 of HIV-1” (Frontiers in Pharmacology, 2021).

“And” between values parts separate entries of the source, which are not always exact repeats. Equal entries are not always repeated. Where two headings read alike, the source gives them in different places.

One data set relates to HIV-1 IIIB (X4). The data set can be described thus: Inhibition of HIV-1 infection (p24 ELISA). It counts as cell-based. To be noted: Human immunodeficiency virus 1, MT2; laboratory-adapted strain IIIB, MT-2 cells, p24 ELISA; read-out: IC50, inhibition of HIV-1 IIIB infection. (In general: An ELISA detects its analyte on a solid surface through an enzyme-linked reagent.)
A further data set relates to HIV-1 Bal (R5). The data set can be described thus: Inhibition of HIV-1 infection (p24 ELISA). The class given is cell-based. To be noted: Human immunodeficiency virus 1; laboratory-adapted strain Bal, CEMx174 5.25 M7 cells, p24 ELISA; read-out: IC50, inhibition of HIV-1 Bal infection.
Data set [1] has as its target T1, 6HB formation between N36 and C34-biotin (Human immunodeficiency virus type 1 group M subtype B, UniProt P04578).
T1 construct: preincubated with N36 peptide (2 μM, 50 μL) at 37°C for 1 h; purchased NIH AIDS Reagent Program
The data set can be described thus: ELISA inhibition of six-helix bundle formation. The class given is biochemical, HIV-1. To be noted: IC50, inhibition of 6HB formation between N36 and C34-biotin, peptides 0.5 μM final.
Method: An inhibitor (compound or C-peptide control) at graded concentrations was preincubated with N36 peptide (2 μM, 50 μL) at 37°C for 1 h. […] Subsequently, 50 μL of the mixture were added to the wells of the NC-1-coated plate, followed by incubation for 1 h. Then, HRP-labeled streptavidin and the substrate were added sequentially. The optical density at 450 nm was measured using a microplate reader (Tecan, Männedorf, Switzerland).

The next data set in a line: Cytotoxicity (CCK-8). To be noted: human. The class given is cell-based. The method, then:
Cell viability was detected following the instructions in the protocol provided in the cell counting kit-8 (CCK-8; Dojindo Molecular Technologies, Gaithersburg, MD, USA) as previously described ([Yang et al., 2018]). Briefly, MT-2 cells and CEMx174 517 5.25 M7 cells (3 × 10^4/well) were incubated with compounds at different concentrations at 37°C for 48 h. Then, the supernatant was discarded, and CCK8 diluted 10 times with fresh medium was added (200 μL/well). After 2–6 h of incubation at 37°C, the absorbance at 450 nm was measured using a microplate reader (Tecan, Männedorf, Switzerland).

Another data set has as its system 96USSN20 (A, R5 and X4). The data set can be described thus: Inhibition of HIV-1 clinical virus infection. The class given is cell-based. To be noted: Human immunodeficiency virus 1; HIV-1 clinical virus 96USSN20 (A, R5 and X4); means ± SD.
For another data set, the system named is 92/UG/001 (D, R5 and X4). The data set can be described thus: Inhibition of HIV-1 clinical virus infection. The class given is cell-based. To be noted: Human immunodeficiency virus 1; HIV-1 clinical virus 92/UG/001 (D, R5 and X4); means ± SD.
The test system of the next data set is T20-resistant virus V38A. It counts as cell-based, HIV-1. To be noted: means ± SD.
The test system of data set [2] is T20-resistant virus V38A N42T. The class given is cell-based, HIV-1. To be noted: means ± SD.
The test system of data set [3] is T2635-resistant virus K90E. It counts as cell-based, HIV-1. To be noted: means ± SD.
For data set [4], the system named is T2635-resistant virus N113E. The class given is cell-based, HIV-1. To be noted: means ± SD.
Data set [5] concerns T2635-resistant virus Q66R N126K. The class given is cell-based, HIV-1. To be noted: means ± SD.
The next data set concerns 92/TH/009 (A/E, R5). The data set can be described thus: Inactivation of cell-free HIV-1 clinical virus. The class given is cell-based. To be noted: Human immunodeficiency virus 1, inactivation of cell-free virions, means ± SD.
The next data set relates to KNH1135 (A, R5). The data set can be described thus: microbe, parasite or virus in culture. To be noted: Human immunodeficiency virus 1; inactivation of cell-free virions, clinical virus KNH1135 (A, R5); means ± SD. It counts as cell-based, HIV-1.
A further data set has as its system SM145/GS 016 (C, R5). The data set can be described thus: Inactivation of cell-free HIV-1 clinical virus. It counts as cell-based. To be noted: Human immunodeficiency virus 1, inactivation of cell-free virions, means ± SD.
The subject of a further data set is PBL288 (C, R5). The data set can be described thus: Inactivation of cell-free HIV-1 clinical virus. To be noted: Human immunodeficiency virus 1, inactivation of cell-free virions, means ± SD. The class given is cell-based.
In data set [6] the test system is T20-resistant virus V38A N42D. It counts as cell-based, HIV-1. To be noted: inactivation of cell-free virions, means ± SD.
Data set [7] deals with T2635-resistant virus N113E. It counts as cell-based, HIV-1. To be noted: inactivation of cell-free virions, means ± SD.
The test system of data set [8] is T2635-resistant virus Q66R N126K. It counts as cell-based, HIV-1. To be noted: inactivation of cell-free virions, means ± SD.
Data set [9] relates to T2635-resistant virus K90E N126K. It counts as cell-based, HIV-1. To be noted: inactivation of cell-free virions, means ± SD.
For data set [10], the system named is T2635-resistant virus H3C. The data set can be described thus: microbe, parasite or virus in culture. It counts as cell-based, HIV-1. To be noted: Human immunodeficiency virus 1.

T1 sequence (P04578 546-581): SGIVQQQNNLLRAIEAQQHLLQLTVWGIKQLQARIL

With `CC1(C)CC(NC(=O)C(=O)Nc2ccc(Cl)c(F)c2)CC(C)(C)N1C(=O)COc1ccc(CCN2C(=O)/C(=C/c3ccc(-c4ccc(Cl)c(C(=O)O)c4)o3)SC2=S)cc1` [FD028, (Z)-2-Chloro-5-(5-((3-(4-(2-(4-(2-((4-Chloro-3-Fluorophenyl)amino)-2-oxoacetamido)-2,2,6,6-Tetramethylpiperidin-1-yl)-2-oxoethoxy)phenethyl)-4-oxo-2-Thioxothiazolidin-5-ylidene)methyl)furan-2-yl)benzoic Acid], the IC50 (as a rule, the concentration at which inhibition is half-maximal) with HIV-1 IIIB (X4) was 330 nM; in the data set with HIV-1 Bal (R5) it was 70 nM; in data set [1] it was 2030 nM and ~2000 nM; in the data set with 96USSN20 (A, R5 and X4) it was 200 ± 10 nM; in the data set with 92/UG/001 (D, R5 and X4) it was 450 ± 120 nM; in the data set on T20-resistant virus V38A, 1090 ± 130 nM. The IC50 in data set [2] came out at 950 ± 60 nM; in data set [3] it was 790 ± 280 nM; in data set [4] it was 570 ± 130 nM; in data set [5], 320 ± 80 nM. Further, the CC50 (usually the concentration at which the toxic effect on the cells reaches its halfway point) at 48 h in the data set “Cytotoxicity (CCK-8)” (CEMx174 5.25 M7 cells, read-out: CC50, CEMx174 5.25 M7 cell) is 18200 nM; in the data set “Cytotoxicity (CCK-8)” (MT-2 cells, read-out: CC50, MT-2 cell), 29500 nM. Further, the EC50 (in general, the midpoint of the concentration-response curve) in the data set with 92/TH/009 (A/E, R5) amounted to 260 ± 60 nM; with KNH1135 (A, R5), 1230 ± 320 nM; in the data set on SM145/GS 016 (C, R5), 960 ± 90 nM; in the data set on PBL288 (C, R5) it was 540 ± 180 nM; in [6], 630 ± 140 nM; in data set [7], 1200 ± 160 nM. The EC50 in data set [8] is 140 ± 70 nM; in [9] it was 490 ± 60 nM; in data set [10] it was 1200 ± 140 nM.
